Results from patent publication US20120214847A1, “2-[1-PHENYL-5-HYDROXY-4a-SUBSTITUTED-HEXAHYDROCYCLOPENTA[F]INDAZOL-5-YL]ETHYL PHENYL DERIVATIVES AS GLUCOCORTICOID RECEPTOR LIGANDS” (Merck Sharp & Dohme Corp., priority 2009, published 2012).

Target: T1, human GR (Homo sapiens, UniProt P04150)
T1 construct: naturally expresses the human GR; endogenous in cells
T1 sequence (P04150 1-777): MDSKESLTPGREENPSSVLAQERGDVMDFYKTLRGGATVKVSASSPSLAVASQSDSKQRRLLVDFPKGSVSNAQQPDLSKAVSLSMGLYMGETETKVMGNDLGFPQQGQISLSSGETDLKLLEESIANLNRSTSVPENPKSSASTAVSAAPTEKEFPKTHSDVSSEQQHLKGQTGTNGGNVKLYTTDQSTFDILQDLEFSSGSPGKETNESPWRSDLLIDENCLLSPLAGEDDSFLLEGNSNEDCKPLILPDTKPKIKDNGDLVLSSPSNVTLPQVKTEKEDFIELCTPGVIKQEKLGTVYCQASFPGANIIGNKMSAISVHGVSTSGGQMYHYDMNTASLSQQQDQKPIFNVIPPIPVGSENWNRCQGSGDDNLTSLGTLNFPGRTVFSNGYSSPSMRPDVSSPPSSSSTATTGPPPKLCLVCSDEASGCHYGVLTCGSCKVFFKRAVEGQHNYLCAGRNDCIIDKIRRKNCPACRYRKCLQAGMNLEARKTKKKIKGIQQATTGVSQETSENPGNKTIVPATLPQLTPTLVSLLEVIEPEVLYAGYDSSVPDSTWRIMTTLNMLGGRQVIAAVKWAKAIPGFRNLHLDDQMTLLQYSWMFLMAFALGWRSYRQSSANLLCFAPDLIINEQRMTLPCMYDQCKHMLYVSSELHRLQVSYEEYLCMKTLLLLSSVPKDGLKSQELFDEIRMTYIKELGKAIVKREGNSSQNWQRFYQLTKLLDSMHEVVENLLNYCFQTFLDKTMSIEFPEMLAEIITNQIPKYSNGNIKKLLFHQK
Assay: Transrepression assay (GITAR), TNFα-β-lactamase reporter in U937 cells
Assay type: cell-based
Conditions: for EC50: U937 cells, IP = inflection point; for Emax: U-937, U937 cells, activity repressed by 100 nM dexamethasone alone set as 100%
Text: Transrepression Assay (GITAR)
This assay assesses the ability of test compounds to control transcription from the TNFα-β-lactamase reporter gene in U937 cells, a human myelomonocytic leukemia cell line that naturally expresses the human GR. The assay measures compound dependent-repression of the TNFa promoter linked to a reporter gene.
The human U937 cells that had been stablely transfected with the TNF-a promoter driving ˜-lactamase are used for this assay. U937 cells contain an endogenous glucocorticoid receptor (GR). Cells are maintained in RPMI 1640 Growth medium (GibcoCat#11875-093) containing 25 mM HEPES, 10% FBS, 2 mM L-Glutamine, 1 mM Sodium pyruvate, 25 μg/ml Gentamicin (Gibed Cat#1571 0-064), 1:1000 2-Mercaptoethanol (Gibco Cat#21985-023) and 0.8 mg/ml G418 (Gibco Cat#10131-027). The density of the cells in the flask needs to be about 1×10^6-3×10^6/ml at the time of harvest. Usually, the cells are split to 1.2˜1.4×10^5/ml (1:10) 3 days prior to the assay. 50,000 cells/well are plated in 96 well black-walled plates the day of assay. Test compounds are added 10 J.lL/well, and cells are incubated at 37° C. for 30˜45 min. For assaying compounds, first dilute 1:10 in DMSO to make 1 mM, then further dilute 1:100 in medium to make 10× stock prior to adding to the cells. Add 50 ng/ml PMA (Sigma, cat#P8139) 10 μL/well to a final concentration 5 ng/ml, and 1 μg/ml LPS (Sigma, cat#L4130) 10 μL/well to a final concentration 100 ng/ml. Incubate cells at 370 C overnight for −18 hr. PMA is stored frozen as […] in DMSO. Dilute 1:10 in DMSO for a working stock of 10 μg/ml and store at −20° C. For assaying, dilute the 10 μg/ml working stock 1:200 in medium to make a 10× solution (50 ng/ml). Store frozen LPS at 1 mg/ml in PBS, dilute 1:1000 in medium to make 10×μg/ml) for the assay. Add 6× loading buffer (CCF2-AM) 20 μL/well, and incubate at room temperature for 70-90 min. […] The activity repressed by 100 nM dexamethasone alone is set as 100% activity.

| SMILES | EC50 [nM] | Emax [%] |
| --- | --- | --- |
| NC(=O)CNC(=O)c1cc(F)cnc1CC[C@]1(O)CCC2=Cc3c(cnn3-c3ccc(F)cc3)C[C@@]21C1CC1 [Example 44, N-(2-Amino-2-oxoethyl)-2-{2-[(4aR,5R)-4a-cyclopropyl-1-(4-fluorophenyl)-5-hydroxy-1,4,4a,5,6,7-hexahydrocyclopenta[f]indazol-5-yl]ethyl}-5-fluoropyridine-3-carboxamide] | 38 | 86 |
| CC(C)(CO)NC(=O)c1ccccc1CC[C@]1(O)CCC2=Cc3c(cnn3-c3ccc(F)cc3)C[C@@]21C1CC1 [Example 45, 2-{2-[(4aR,5R)-4a-Cyclopropyl-1-(4-fluorophenyl)-5-hydroxy-1,4,4a,5,6,7-hexahydrocyclopenta[f]indazol-5-yl]ethyl}-N-(1-hydroxy-2-methylpropan-2-yl)benzamide] | 9 | 85 |
| O=C(NC1(CO)CC1)c1ccccc1CC[C@]1(O)CCC2=Cc3c(cnn3-c3ccc(F)cc3)C[C@@]21C1CC1 [Example 46, 2-{2-[(4aR,5R)-4a-Cyclopropyl-1-(4-fluorophenyl)-5-hydroxy-1,4,4a,5,6,7-hexahydrocyclopenta[f]indazol-5-yl]ethyl}-N-[1-(hydroxymethyl)cyclopropyl]benzamide] | 7 | 90 |
| NC(=O)CNC(=O)c1ccccc1CC[C@]1(O)CCC2=Cc3c(cnn3-c3ccc(F)cc3)C[C@@]21C1CC1 [Example 47, N-(2-Amino-2-oxoethyl)-2-{2-[(4aR,5R)-4a-cyclopropyl-1-(4-fluorophenyl)-5-hydroxy-1,4,4a,5,6,7-hexahydrocyclopenta[f]indazol-5-yl]ethyl}benzamide] | 9 | 83 |
| CC(C)(CO)NC(=O)c1cc(F)cnc1CC[C@]1(O)CCC2=Cc3c(cnn3-c3ccc(F)cc3)C[C@@]21C1CC1 [Example 48, 2-{2-[(4aR,5R)-4a-Cyclopropyl-1-(4-fluorophenyl)-5-hydroxy-1,4,4a,5,6,7-hexahydrocyclopenta[f]indazol-5-yl]ethyl}-5-fluoro-N-(1-hydroxy-2-methylpropan-2-yl)pyridine-3-carboxamide] | 9 | 87 |
| O=C(NCCO)c1ccccc1CC[C@]1(O)CCC2=Cc3c(cnn3-c3ccc(F)cc3)C[C@@]21C1CC1 [Example 50, 2-{2-[(4aR,5R)-4a-Cyclopropyl-1-(4-fluorophenyl)-5-hydroxy-1,4,4a,5,6,7-hexahydrocyclopenta[f]indazol-5-yl]ethyl}-N-(2-hydroxyethyl)benzamide] | 9 | 88 |
| NC(=O)Cc1ccccc1CC[C@]1(O)CCC2=Cc3c(cnn3-c3ccc(F)cc3)C[C@@]21C1CC1 [Example 56, 2-(2-{2-[(4aR,5S)-4a-Cyclopropyl-1-(4-fluorophenyl)-5-hydroxy-1,4,4a,5,6,7-hexahydrocyclopenta[f]indazol-5-yl]ethyl}phenyl)acetamide] | 95 | 78 |
| NC(=O)[C@H](F)c1c(F)cccc1CC[C@]1(O)CCC2=Cc3c(cnn3-c3ccc(F)cc3)C[C@@]21C1CC1 [Example 57, (2R)-2-(2-{2-[(4aR,5R)-4a-Cyclopropyl-1-(4-fluorophenyl)-5-hydroxy-1,4,4a,5,6,7-hexahydrocyclopenta[f]indazol-5-yl]ethyl}-6-fluorophenyl)-2-fluoroethanamide] | 106 | 86 |
| CS(=O)(=O)c1ccccc1CC[C@]1(O)CCC2=Cc3c(cnn3-c3ccc(F)cc3)C[C@@]21C1CC1 [Example 58, (4aR,5R)-4a-Cyclopropyl-1-(4-fluorophenyl)-5-{2-[2-(methylsulfonyl)phenyl]ethyl}-1,4,4a,5,6,7-hexahydrocyclopenta[f]indazol-5-ol] | 5 | 88 |

Second part, the compound after the results:

| EC50 [nM] | Emax [%] | SMILES |
| --- | --- | --- |
| 262 | 79 | CC[C@]12Cc3cnn(-c4ccc(F)cc4)c3C=C1CC[C@@]2(O)CCc1nccc(C2CC2)c1C(=O)OC [Example 41, Methyl 4-cyclopropyl-2-{2-[(4aS,5R)-4a-ethyl-1-(4-fluorophenyl)-5-hydroxy-1,4,4a,5,6,7-hexahydrocyclopenta[f]indazol-5-yl]ethyl}pyridine-3-carboxylate] |
| 11 | 89 | CC[C@]12Cc3cnn(-c4ccc(F)cc4)c3C=C1CC[C@@]2(O)CCc1ccccc1S(C)(=O)=O [Example 42, (4aS,5R)-4a-Ethyl-1-(4-fluorophenyl)-5-{2-[2-(methylsulfonyl)phenyl]ethyl}-1,4,4a,5,6,7-hexahydrocyclopenta[f]indazol-5-ol] |
| 52 | 86 | NC(=O)CNC(=O)c1cccnc1CC[C@]1(O)CCC2=Cc3c(cnn3-c3ccc(F)cc3)C[C@@]21C1CC1 [Example 43, N-(2-Amino-2-oxoethyl)-2-{2-[(4aR,5R)-4a-cyclopropyl-1-(4-fluorophenyl)-5-hydroxy-1,4,4a,5,6,7-hexahydrocyclopenta[f]indazol-5-yl]ethyl}pyridine-3-carboxamide] |
| 12 | 78 | NC(=O)c1c(C2CC2)ccnc1CC[C@]1(O)CCC2=Cc3c(cnn3-c3ccc(F)cc3)C[C@@]21C1CC1 [Example 49, 4-Cyclopropyl-2-{2-[(4aR,5R)-4a-cyclopropyl-1-(4-fluorophenyl)-5-hydroxy-1,4,4a,5,6,7-hexahydrocyclopenta[f]indazol-5-yl]ethyl}pyridine-3-carboxamide] |
| 65 | 83 | CC[C@]12Cc3cnn(-c4ccc(F)cc4)c3C=C1CC[C@@]2(O)CCc1ccccc1S(=O)(=O)CC [Example 51, (4aS,5R)-4a-Ethyl-5-{2-[2-(ethylsulfonyl)phenyl]ethyl}-1-(4-fluorophenyl)-1,4,4a,5,6,7-hexahydrocyclopenta[f]indazol-5-ol] |
| 53 | 85 | CC[C@]12Cc3cnn(-c4ccc(F)cc4)c3C=C1CC[C@@]2(O)CCc1ncccc1C(N)=O [Example 52, 2-{2-[(4aS,5R)-4a-Ethyl-1-(4-fluorophenyl)-5-hydroxy-1,4,4a,5,6,7-hexahydrocyclopenta[f]indazol-5-yl]ethyl}pyridine-3-carboxamide] |
| 75 | 86 | CC[C@]12Cc3cnn(-c4ccc(F)cc4)c3C=C1CC[C@@]2(O)CCc1ncc(F)cc1C(N)=O [Example 53, 2-{2-[(4aS,5R)-4a-Ethyl-1-(4-fluorophenyl)-5-hydroxy-1,4,4a,5,6,7-hexahydrocyclopenta[f]indazol-5-yl]ethyl}-5-fluoropyridine-3-carboxamide] |
| 48 | 77 | COc1ccnc(CC[C@]2(O)CCC3=Cc4c(cnn4-c4ccc(F)cc4)C[C@@]32C2CC2)c1C(N)=O [Example 54, 2-{2-[(4aR,5R)-4a-Cyclopropyl-1-(4-fluorophenyl)-5-hydroxy-1,4,4a,5,6,7-hexahydrocyclopenta[f]indazol-5-yl]ethyl}-4-methoxypyridine-3-carboxamide] |
| 2 | 87 | NC(=O)c1c(C(F)(F)F)ccnc1CC[C@]1(O)CCC2=Cc3c(cnn3-c3ccc(F)cc3)C[C@@]21C1CC1 [Example 55, 2-{2-[(4aR,5R)-4a-Cyclopropyl-1-(4-fluorophenyl)-5-hydroxy-1,4,4a,5,6,7-hexahydrocyclopenta[f]indaozol-5-yl]ethyl}-4-(trifluoromethyl)pyridine-3-carboxamide] |
